Values after ≈ are worked out from the molar mass of the structure shown.

The test system of this assay is U-937. Nature of the assay: Inhibition of etoposide-induced caspase 3 induction in human U937 cells after 7 hrs. It is filed as functional, cell-based. The settings on record: U-937, 7 h.

`COc1cc(/C=C2/CO[C@@H](c3ccc(O)c(OC)c3)[C@@H]2COC(=O)c2ccc(O)cc2)ccc1O` [AGASTENOL] displayed an IC50 of 11.4 µg/mL (≈ 23.8 µM).
As for `COc1cc(C[C@@H]2CO[C@@H](c3ccc(O)c(OC)c3)[C@@H]2COC(=O)c2ccc(O)cc2)ccc1O` [AGASTINOL], the figure is 15.2 µg/mL (≈ 31.6 µM).

As a reminder, the IC50 is the concentration that gives 50% inhibition.

Values taken from ChEMBL document CHEMBL1159334, “Agastinol and agastenol, novel lignans from Agastache rugosa and their evaluation in an apoptosis inhibition assay” (J Nat Prod, 2002).
